Measured values from ChEMBL document CHEMBL1150444, “A new class of diacidic nonpeptide angiotensin II receptor antagonists” (Bioorg Med Chem Lett, 1994).

How the values were obtained:
[1] = molecular target: T1, Type-1 angiotensin II receptor (Bos taurus, UniProt P25104); assay: Concentration required to inhibit [125I]AII binding to Angiotensin II receptor from membrane fractions of bovine adrenal cortex; type: tissue-based
T1 sequence (P25104 whole entry): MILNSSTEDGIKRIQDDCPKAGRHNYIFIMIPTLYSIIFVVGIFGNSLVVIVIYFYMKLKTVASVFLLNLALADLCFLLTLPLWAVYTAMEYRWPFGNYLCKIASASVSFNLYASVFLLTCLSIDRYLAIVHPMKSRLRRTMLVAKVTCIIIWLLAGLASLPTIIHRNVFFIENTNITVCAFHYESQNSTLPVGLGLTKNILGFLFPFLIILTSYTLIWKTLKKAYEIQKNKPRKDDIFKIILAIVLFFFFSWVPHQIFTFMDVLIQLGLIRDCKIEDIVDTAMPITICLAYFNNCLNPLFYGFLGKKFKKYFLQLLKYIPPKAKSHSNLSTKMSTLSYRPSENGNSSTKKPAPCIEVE

Oryctolagus cuniculus [2] = species: Oryctolagus cuniculus; assay: In vitro inhibition of contraction of rabbit aorta strips measured as pA2 calculated by the method of Van Rossum; type: functional; settings: read-out: pA2 (converted)
Oryctolagus cuniculus [3] = species: Oryctolagus cuniculus; assay: In vitro inhibition of contraction of rabbit aorta strips measured as pD2 calculated by the method of Van Rossum; type: functional
Rattus norvegicus = assay: Inhibitory effect at a dose of 1mg/gk, po on AII induced pressor response at a dose of 100ng/kg, iv in conscious normotensive rats; type: functional
Oryctolagus cuniculus [4] = species: Oryctolagus cuniculus; assay: Percent response at a dose of 9M on AII induced contraction in isolated rabbit aorta, expressed as percent of maximal response; type: functional
Oryctolagus cuniculus [5] = species: Oryctolagus cuniculus; assay: Percent response at a dose of […] on AII induced contraction in isolated rabbit aorta, expressed as percent of maximal response; type: functional
Oryctolagus cuniculus [6] = species: Oryctolagus cuniculus; assay: Percent response at a dose of 8M on AII induced contraction in isolated rabbit aorta, expressed as percent of maximal response; type: functional

IC50 [1] [nM]	SMILES	Kb (Oryctolagus cuniculus [2]) [nM]	pD2 (Oryctolagus cuniculus [3])	Inhibition (Rattus norvegicus) [%]	Response (Oryctolagus cuniculus [4]) [%]	Response (Oryctolagus cuniculus [5]) [%]	Response (Oryctolagus cuniculus [6]) [%]
390	CCOc1nc2ccccc2n1Cc1ccc(-c2ccccc2-c2nnn[nH]2)cc1	11.7	–	–	–	–	–
3300	CCCc1cn2nccc2n1Cc1ccc(-c2ccccc2-c2nn[nH]n2)cc1	57.5	–	–	–	–	–
54	CCCCc1nc2c(C)cncc2n1Cc1ccc(-c2ccccc2-c2nnn[nH]2)cc1	12	–	–	–	–	–
–	CCOc1nc2cccc(C(=O)O)c2n1Cc1ccc(-c2ccccc2-c2nnn[nH]2)cc1 [CANDESARTAN]	–	9.97	–	–	–	–
500	CCSc1nc2c(C)sc(C(=O)O)c2n1Cc1ccc(-c2ccccc2-c2nn[nH]n2)cc1	–	9.65	100	25	65	–
1200	CCSc1nc2c(C)scc2n1Cc1ccc(-c2ccccc2-c2nn[nH]n2)cc1	5.5	–	18	85	–	85
36	CCCCc1nc2c(C)cnc(C(=O)O)c2n1Cc1ccc(-c2ccccc2-c2nn[nH]n2)cc1	–	9.16	–	–	–	–
48	CCCc1cn2ncc(C(=O)O)c2n1Cc1ccc(-c2ccccc2-c2nn[nH]n2)cc1	–	9.58	–	–	–	–
